Values of other authors as cited in patent US6797282B2, “Combination progestin oral contraceptive regimen” (Ortho-McNeil Pharmaceutical, Inc., priority 1997, dated 2004).

Tested on: endometrium
Conditions: primates; Wilborn et al 1984

C#C[C@]1(OC(C)=O)CC[C@H]2[C@@H]3CCC4=CC(=NO)CC[C@@H]4[C@H]3CC[C@@]21CC (mixture of isomers) [Norgestimate]
effect on endometrium in comparison to other progestins: endometrial sparing effect
